Results: patent US20250304559A1, “Ether-Linked Antiviral Compounds” (Pfizer Inc., priority 2021, published 2025)
Where two headings read alike, the source gives them in different places.

Assays:
SARS-CoV-2 3CL protease = biological target: T1, SARS-CoV-2 3CL protease (Severe acute respiratory syndrome coronavirus 2, UniProt P0DTD1); test: SARS-CoV-2 Coronavirus 3C Protease FRET Assay; format: biochemical; details: Morrison equation fit, 15 nM enzyme, 25 μM peptide substrate
T1 construct: measures the activity of full-length SARS-CoV-2 3CL protease

[1] = system: SARS-CoV-2 (USA_WA1/2020); test: Antiviral Activity from SARS-CoV-2 Infection (cytopathic effect, Cell Titer-Glo); format: cell-based; details: Severe acute respiratory syndrome coronavirus 2, Vero C1008, 72 h, VeroE6 cells enriched for hACE2, MOI 0.002, 3-day incubation; tested alone or with P-gp inhibitor CP-100356 2 μM (table does not say which); read-out: Geometric Mean EC50
[2] = Examples 14-78 and 114 (second head of Table 2), read-out: Geometric Mean Ki (nM) IC50
[3] = Examples 1-13, 60 minutes at 23° C., read-out: Geometric Mean Ki

SMILES | Ki (SARS-CoV-2 3CL protease; [2]) [nM] | EC50 [1] [nM] | Ki (SARS-CoV-2 3CL protease; [3]) [nM]
CC(C)[C@H](NC(=O)C(F)(F)F)C(=O)N1C[C@H]2[C@@H]([C@H]1C(=O)N[C@@H](C[C@@H]1CCNC1=O)C(=O)COc1cc(F)cc(F)c1)C2(C)C [Example 58, (1R,2S,5S)-N-{(2S)-4-(3,5-difluorophenoxy)-3-oxo-1-[(3S)-2-oxopyrrolidin-3-yl]butan-2-yl}-6,6-dimethyl-3-[N-(trifluoroacetyl)-L-valyl]-3-azabicyclo[3.1.0]hexane-2-carboxamide] | 17.1 | 88.7 | –
COC(=O)N[C@H](C(=O)N1C[C@H]2[C@@H]([C@H]1C(=O)N[C@@H](C[C@@H]1CCNC1=O)C(=O)COc1ccc(F)cc1F)C2(C)C)C(C)(C)C [Example 24, methyl {(2S)-1-[(1R,2S,5S)-2-({(2S)-4-(2,4-difluorophenoxy)-3-oxo-1-[(3S)-2-oxopyrrolidin-3-yl]butan-2-yl}carbamoyl)-6,6-dimethyl-3-azabicyclo[3.1.0]hexan-3-yl]-3,3-dimethyl-1-oxobutan-2-yl}carbamate] | 1.41 | 17 | –
CC(C)[C@H](NS(=O)(=O)C(F)(F)F)C(=O)N1C[C@H]2[C@@H]([C@H]1C(=O)N[C@@H](C[C@@H]1CCNC1=O)C(=O)COc1cccc(Cl)c1)C2(C)C [Example 40, (1R,2S,5S)-N-{(2S)-4-(3-chlorophenoxy)-3-oxo-1-[(3S)-2-oxopyrrolidin-3-yl]butan-2-yl}-6,6-dimethyl-3-[N-(trifluoromethanesulfonyl)-L-valyl]-3-azabicyclo[3.1.0]hexane-2-carboxamide] | 4.22 | 112 | –
CC(C)(C)[C@H](NS(=O)(=O)C(F)(F)F)C(=O)N1C[C@H]2[C@@H]([C@H]1C(=O)N[C@@H](C[C@@H]1CCNC1=O)C(=O)COc1cc(F)ccc1F)C2(C)C [Example 34, (1R,2S,5S)-N-{(2S)-4-(2,5-difluorophenoxy)-3-oxo-1-[(3S)-2-oxopyrrolidin-3-yl]butan-2-yl}-6,6-dimethyl-3-[3-methyl-N-(trifluoromethanesulfonyl)-L-valyl]-3-azabicyclo[3.1.0]hexane-2-carboxamide] | 6.95 | 86 | –
CCC(C(NC(=O)C(F)(F)F)C(=O)N1C[C@H]2[C@@H]([C@H]1C(=O)N[C@@H](C[C@@H]1CCNC1=O)C(=O)COc1ccc(F)cc1F)C2(C)C)C(F)(F)F (stereo in doubt) [Example 32, (1R,2S,5S)-N-{(2S)-4-(2,4-difluorophenoxy)-3-oxo-1-[(3S)-2-oxopyrrolidin-3-yl]butan-2-yl}-6,6-dimethyl-3-[3′,3′,3′-trifluoro-N-(trifluoroacetyl)-L-isoleucyl]-3-azabicyclo[3.1.0]hexane-2-carboxamide] | 2.42 | 98.9 | –
COC(=O)N[C@H](C(=O)N1C[C@H]2[C@@H]([C@H]1C(=O)N[C@@H](C[C@@H]1CCNC1=O)C(=O)COc1ccc(F)cc1)C2(C)C)C(C)(C)C [Example 21, methyl {(2S)-1-[(1R,2S,5S)-2-({(2S)-4-(4-fluorophenoxy)-3-oxo-1-[(3S)-2-oxopyrrolidin-3-yl]butan-2-yl}carbamoyl)-6,6-dimethyl-3-azabicyclo[3.1.0]hexan-3-yl]-3,3-dimethyl-1-oxobutan-2-yl}carbamate] | 2.2 | 18.8 | –
CC(C)[C@H](NS(=O)(=O)C(F)(F)F)C(=O)N1C[C@H]2[C@@H]([C@H]1C(=O)N[C@@H](C[C@@H]1CC(O)NC1=O)C(=O)COc1ccc(F)cc1F)C2(C)C (stereo partly drawn) [Example 54, (1R,2S,5S)-N-{(2S)-4-(2,4-difluorophenoxy)-1-[(3R)-5-hydroxy-2-oxopyrrolidin-3-yl]-3-oxobutan-2-yl}-6,6-dimethyl-3-[N-(trifluoromethanesulfonyl)-L-valyl]-3-azabicyclo[3.1.0]hexane-2-carboxamide] | 11.3 | 2250 | –
CC(C)[C@H](NS(=O)(=O)C(F)(F)F)C(=O)N1C[C@H]2[C@@H]([C@H]1C(=O)N[C@@H](C[C@@H]1CC(=O)NC1=O)C(=O)COc1ccc(F)cc1F)C2(C)C [Example 49, (1R,2S,5S)-N-{(2S)-4-(2,4-difluorophenoxy)-1-[(3R)-2,5-dioxopyrrolidin-3-yl]-3-oxobutan-2-yl}-6,6-dimethyl-3-[N-(trifluoromethanesulfonyl)-L-valyl]-3-azabicyclo[3.1.0]hexane-2-carboxamide] | 9.93 | 2010 | –
Cc1noc(OCC(=O)[C@H](C[C@@H]2CCNC2=O)NC(=O)[C@@H]2[C@@H]3[C@H](CN2C(=O)[C@@H](NC(=O)C(F)(F)F)C(C)C)C3(C)C)n1 [Example 76, (1R,2S,5S)-6,6-dimethyl-N-{(2S)-4-[(3-methyl-1,2,4-oxadiazol-5-yl)oxy]-3-oxo-1-[(3S)-2-oxopyrrolidin-3-yl]butan-2-yl}-3-[N-(trifluoroacetyl)-L-valyl]-3-azabicyclo[3.1.0]hexane-2-carboxamide] | 3840 | > 100000 | –
CC(C)[C@H](NS(=O)(=O)C(F)(F)F)C(=O)N1C[C@H]2[C@@H]([C@H]1C(=O)N[C@@H](C[C@@H]1CCNC1=O)C(=O)COc1cc(C(F)(F)F)nn1C)C2(C)C [Example 11, (1R,2S,5S)-6,6-dimethyl-N-{(2S)-4-{[1-methyl-3-(trifluoromethyl)-1H-pyrazol-5-yl]oxy}-3-oxo-1-[(3S)-2-oxopyrrolidin-3-yl]butan-2-yl}-3-{N-[(trifluoromethyl)sulfonyl]-L-valyl}-3-azabicyclo[3.1.0]hexane-2-carboxamide] | – | 2030 | 13.5
CC(C)[C@H](NC(=O)C(F)(F)F)C(=O)N1C[C@H]2[C@@H]([C@H]1C(=O)N[C@@H](C[C@@H]1CCNC1=O)C(=O)COc1cccc(Cl)c1)C2(C)C [Example 50, (1R,2S,5S)-N-{(2S)-4-(3-chlorophenoxy)-3-oxo-1-[(3S)-2-oxopyrrolidin-3-yl]butan-2-yl}-6,6-dimethyl-3-[N-(trifluoroacetyl)-L-valyl]-3-azabicyclo[3.1.0]hexane-2-carboxamide] | 10.7 | 76.2 | –
CC(C)[C@H](NS(=O)(=O)C(F)(F)F)C(=O)N1C[C@H]2[C@@H]([C@H]1C(=O)N[C@@H](C[C@@H]1CCNC1=O)C(=O)COc1ccc(F)cc1F)C2(C)C [Example 4, (1R,2S,5S)-N-{(2S)-4-(2,4-difluorophenoxy)-3-oxo-1-[(3S)-2-oxopyrrolidin-3-yl]butan-2-yl}-6,6-dimethyl-3-{N-[(trifluoromethyl)sulfonyl]-L-valyl}-3-azabicyclo[3.1.0]hexane-2-carboxamide] | – | 395 | 6.34
CC(C)(C)[C@H](NS(=O)(=O)C(F)(F)F)C(=O)N1C[C@H]2[C@@H]([C@H]1C(=O)N[C@@H](C[C@@H]1CC(O)NC1=O)C(=O)COc1ccc(F)cc1F)C2(C)C (stereo partly drawn) [Example 38, (1R,2S,5S)-N-{(2S)-4-(2,4-difluorophenoxy)-1-[(3R)-5-hydroxy-2-oxopyrrolidin-3-yl]-3-oxobutan-2-yl}-6,6-dimethyl-3-[3-methyl-N-(trifluoromethanesulfonyl)-L-valyl]-3-azabicyclo[3.1.0]hexane-2-carboxamide] | 4.12 | 1390 | –
CC(C)[C@H](NC(=O)C(F)(F)F)C(=O)N1C[C@H]2[C@@H]([C@H]1C(=O)N[C@@H](C[C@@H]1CCNC1=O)C(=O)COc1ccc(F)c(F)c1)C2(C)C [Example 48, (1R,2S,5S)-N-{(2S)-4-(3,4-difluorophenoxy)-3-oxo-1-[(3S)-2-oxopyrrolidin-3-yl]butan-2-yl}-6,6-dimethyl-3-[N-(trifluoroacetyl)-L-valyl]-3-azabicyclo[3.1.0]hexane-2-carboxamide] | 7.87 | 44.3 | –
